Laboratory results reported in patent US20100166897A1, “COMBINATION OF MONOSACCHARIDES WITH ANTIOXIDANTS AND USE THEREOF” (L'OREAL, priority 2008, published 2010).

Tests used:
[1] = test system: type I procollagen; assay: Synthesis of procollagen 1 in reconstructed skin (indirect immunofluorescence); assay type: cell-based, human
Description: Conventional detection via indirect immunofluorescence of type I procollagen in the dermis of the reconstructed skin was also performed on other series of frozen sections (anti-procoll 1 antibody (MAB 1912 Millipore)+FTIC-coupled conjugate (112-095-068 Jackson Immunoresearch)). In order to obtain bearings within the cutaneous architecture during the microscopic examination of the sections, the cell nuclei of the keratinocytes and fibroblasts are localized by staining them with propidium iodide, as described above. Three frozen sections are prepared at random on each reconstructed skin and on each section, and two microscopic fields (25× objective lens) are analysed is by fluorescence microscopy and photographed. The levels of fluorescence proportional to the amount of type I procollagen are compared between the control skin and the skin treated with rhamnose.

[2] = test system: keratinocytes (HaCat line); assay: Proliferation of keratinocytes (HaCat line) in medium deficient in growth factors; Cyquant, Nile red and XTT probes; assay type: cell-based
Description: The keratinocytes (HaCat line) are cultured under two conditions: whole defined culture medium (standard condition) and culture medium deficient in growth factors. This deficient medium gives rise to a controlled delay in cell proliferation. Under these conditions, it is then possible to measure the effects of compounds capable of compensating for the deficiency in growth factors of the culture medium and thus of relaunching the cell multiplication and/or of stimulating cell metabolism.
The keratinocyte proliferation is measured by means of three markers on the same cell population: the level of DNA, which is proportional to the number of cells (Cyquant probe), the level of constituent polar lipids of cell membranes (Nile red probe) and the mitochondrial respiration, which reflects the general cell metabolism (XTT probe).

[3] = test system: dermal fibroblasts of the reconstructed skin; assay: Proliferation of fibroblasts in whole reconstructed skin (propidium iodide count on frozen sections); assay type: cell-based, human; details: 5 mM rhamnose; within 48 hours of treatment
Description: Rhamnose was studied on a model of whole reconstructed skin in order to measure its anti-ageing efficacy on the dermal compartment.
Briefly, the model of reconstructed skin used is that described by Bell et al. (Bell E. et al., The reconstitution of living skin, J. Invest. Dermatol., 1983, July; 81): it includes a dermal equivalent on which is reconstructed a multistratified epidermis; the dermal equivalent is manufactured from acid-soluble collagen, culture medium containing serum and normal adult human fibroblasts. After 5 days of shrinkage, this equivalent is inoculated with keratinocytes and then cultured for 6 days in immersion and for 7 days in emersion in order to obtain a multistratified and differentiated epidermis having a horny layer.
The reconstructed skin is treated with 5 mM rhamnose for 2 days and 5 days in the culture medium; after the treatment, the reconstructed skins are included in Tissue Tek in order to produce frozen sections 7 μm thick with a cryostat. […] Three frozen sections are prepared at random on each reconstructed skin; on each section, two microscopic fields (25× objective lens) are analysed by fluorescence microscopy and photographed. The dermal fibroblasts are thus counted for each reconstructed skin on six images in total representing the six microscopic fields considered. […]

C[C@H](O)[C@H](O)[C@@H](O)[C@@H](O)C=O [rhamnose]
synthesis of type I procollagen by the fibroblasts ([1]; 1 mM rhamnose for 120 hours, reconstructed skin): greatly stimulated
green fluorescence (proportional to amount of type I procollagen) compared with control skin ([1]; 1 mM rhamnose for 120 hours, reconstructed skin section): marked increase
procollagen 1 synthesis ([1]; 1 mM, reconstructed skin): stimulation of procollagen 1 synthesis
procollagen 1 synthesis ([1]; 5 mM, reconstructed skin): stimulation of procollagen 1 synthesis
number of cells compared with an untreated control ([2]; keratinocytes cultured in medium depleted in growth factor): higher number of cells
keratinocyte proliferation ([2]; keratinocytes cultured in medium depleted in growth factors): activate keratinocyte proliferation
growth of the dermal fibroblasts of the reconstructed skin [3]: stimulation of growth
